According to ChEMBL document CHEMBL2010766, “Bivalent Ligands for the Serotonin 5-HT3 Receptor” (ACS Med Chem Lett, 2011):

Each molecule was assayed against T1, 5-hydroxytryptamine receptor 3A (Rattus norvegicus, UniProt P35563) (assay: Displacement of [3H]granisetron from 5HT3 receptor in Wistar rat cortical membranes by liquid scintillation spectrometry).
T1 sequence (P35563 whole entry): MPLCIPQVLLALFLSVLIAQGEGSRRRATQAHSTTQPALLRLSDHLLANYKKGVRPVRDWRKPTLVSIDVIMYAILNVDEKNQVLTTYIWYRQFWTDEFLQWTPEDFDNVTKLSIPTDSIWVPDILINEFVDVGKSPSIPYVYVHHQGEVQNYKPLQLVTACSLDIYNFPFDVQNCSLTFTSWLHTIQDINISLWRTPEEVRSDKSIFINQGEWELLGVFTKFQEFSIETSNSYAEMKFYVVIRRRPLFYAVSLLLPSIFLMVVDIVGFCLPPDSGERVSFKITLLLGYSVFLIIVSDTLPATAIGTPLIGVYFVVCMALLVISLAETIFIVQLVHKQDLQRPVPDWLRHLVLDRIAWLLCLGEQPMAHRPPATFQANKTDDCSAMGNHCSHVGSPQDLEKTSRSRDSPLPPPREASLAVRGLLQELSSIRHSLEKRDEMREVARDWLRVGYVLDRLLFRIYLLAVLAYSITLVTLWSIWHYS
Assay type: cell membranes, Membrane

Row | Ki [nM] | Compound
1 | 28 | Cc1c(N2CCN(C)CC2)nc2ccccc2c1C(=O)NCCCCCCNC(=O)c1c(C)c(N2CCN(C)CC2)nc2ccccc12
2 | 2.7 | Cc1c(N2CCN(C)CC2)nc2ccccc2c1C(=O)NCCCCCCCNC(=O)c1c(C)c(N2CCN(C)CC2)nc2ccccc12
3 | 67 | Cc1c(N2CCN(C)CC2)nc2ccccc2c1C(=O)NCCCCCCCCNC(=O)c1c(C)c(N2CCN(C)CC2)nc2ccccc12
4 | 7.7 | Cc1c(N2CCN(C)CC2)nc2ccccc2c1C(=O)NCCOCCOCCNC(=O)c1c(C)c(N2CCN(C)CC2)nc2ccccc12
5 | 27 | Cc1c(N2CCN(C)CC2)nc2ccccc2c1C(=O)NCCOCCOCCOCCOCCOCCOCCOCCNC(=O)c1c(C)c(N2CCN(C)CC2)nc2ccccc12
6 | 15 | Cc1c(N2CCN(C)CC2)nc2ccccc2c1C(=O)NCCOCCOCCOCCOCCOCCOCCOCCOCCOCCNC(=O)c1c(C)c(N2CCN(C)CC2)nc2ccccc12
7 | 71 | Cc1c(N2CCN(C)CC2)nc2ccccc2c1C(=O)NCCCCCCNc1c2c(nc3ccccc13)CCCC2
8 | 69 | Cc1c(N2CCN(C)CC2)nc2ccccc2c1C(=O)NCCCCCCCCNc1c2c(nc3ccccc13)CCCC2
9 | 26 | Cc1c(N2CCN(C)CC2)nc2ccccc2c1C(=O)NCCCCCCCNC(=O)NC[13C](=O)O
10 | 141 | Cc1c(N2CCN(C)CC2)nc2ccccc2c1C(=O)NCCOCCOCCNC(=O)NC[13C](=O)O
11 | 178 | Cc1c(N2CCN(C)CC2)nc2ccccc2c1C(=O)NCCCCCCNC(=O)OC(C)(C)C
12 | 18 | Cc1c(N2CCN(C)CC2)nc2ccccc2c1C(=O)NCCCCCCCNC(=O)OC(C)(C)C
13 | 127 | Cc1c(N2CCN(C)CC2)nc2ccccc2c1C(=O)NCCCCCCCCNC(=O)OC(C)(C)C
14 | 132 | Cc1c(N2CCN(C)CC2)nc2ccccc2c1C(=O)NCCOCCOCCNC(=O)OC(C)(C)C

Row | Compound | Ki [nM]
15 | Cc1c(N2CCN(C)CC2)nc2ccccc2c1C(=O)NCCCCCCCNc1c2c(nc3ccccc13)CCCC2 | 5.6
16 | Cc1c(N2CCN(C)CC2)nc2ccccc2c1C(=O)NCCOCCOCCOCCOCCOCCOCCOCCNC(=O)NC[13C](=O)O | 106
17 | Cc1c(N2CCN(C)CC2)nc2ccccc2c1C(=O)NCCOCCOCCOCCOCCOCCOCCOCCOCCOCCNC(=O)NC[13C](=O)O | 154
18 | Cc1c(N2CCN(C)CC2)nc2ccccc2c1C(=O)NCCOCCOCCOCCOCCOCCOCCOCCNC(=O)OC(C)(C)C | 89
19 | Cc1c(N2CCN(C)CC2)nc2ccccc2c1C(=O)NCCOCCOCCOCCOCCOCCOCCOCCOCCOCCNC(=O)OC(C)(C)C | 71
